Data on 4 compounds can be found in ChEMBL document CHEMBL1139605, “Novel ketal ligands for the glucocorticoid receptor: in vitro and in vivo activity” (Bioorg Med Chem Lett, 2005).

Experiment [1] concerns A549. Put plainly: Effective concentration for inhibition of interleukin-6 in human A549 lung carcinoma cell line using […]% radiolabeled Dexamethasone. It counts as functional, cell-based.
The next experiment deals with T1, Glucocorticoid receptor (Homo sapiens, UniProt P04150).
T1 sequence (P04150 whole entry): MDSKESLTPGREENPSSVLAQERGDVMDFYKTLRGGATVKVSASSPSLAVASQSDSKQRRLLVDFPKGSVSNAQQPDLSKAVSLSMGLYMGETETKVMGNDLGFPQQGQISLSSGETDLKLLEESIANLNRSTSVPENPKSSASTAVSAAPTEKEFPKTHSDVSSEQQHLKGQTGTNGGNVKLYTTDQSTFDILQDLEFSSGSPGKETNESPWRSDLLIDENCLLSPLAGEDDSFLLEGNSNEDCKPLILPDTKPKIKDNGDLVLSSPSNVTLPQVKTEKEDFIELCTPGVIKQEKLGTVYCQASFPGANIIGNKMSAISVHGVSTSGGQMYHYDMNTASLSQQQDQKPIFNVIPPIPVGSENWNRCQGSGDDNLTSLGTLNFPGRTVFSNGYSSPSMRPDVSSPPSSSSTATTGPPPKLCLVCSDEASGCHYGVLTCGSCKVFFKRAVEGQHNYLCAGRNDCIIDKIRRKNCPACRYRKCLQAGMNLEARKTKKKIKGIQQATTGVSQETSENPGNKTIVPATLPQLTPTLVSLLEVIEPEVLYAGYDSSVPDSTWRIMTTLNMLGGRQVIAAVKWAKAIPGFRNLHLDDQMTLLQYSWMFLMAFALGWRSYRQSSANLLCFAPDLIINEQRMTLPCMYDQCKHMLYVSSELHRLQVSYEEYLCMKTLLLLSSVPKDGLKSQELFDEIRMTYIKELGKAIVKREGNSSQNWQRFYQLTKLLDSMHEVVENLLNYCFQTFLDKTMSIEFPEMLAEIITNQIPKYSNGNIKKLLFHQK
Put plainly: Inhibition of human glucocorticoid receptor alpha isoform.

For experiment [2], the species on record is Mus musculus. In words: Effective concentration required for inhibition of interleukin-6 in mouse thioglycolate-elicited peritoneal exudate cell line using 52% radiolabeled Dexamethasone. It counts as functional.
Experiment [3] is filed under the species Mus musculus. Put plainly: Effective concentration required for inhibition of interleukin-6 in mouse thioglycolate-elicited peritoneal exudate cell line using 57% radiolabeled Dexamethasone. It counts as functional.
The test system of experiment [4] is A549. In words: Effective concentration for inhibition of interleukin-6 in human A549 lung carcinoma cell line using 47% radiolabeled Dexamethasone. It counts as functional, cell-based.
The species named for experiment [5] is Mus musculus. In words: Effective concentration required for inhibition of interleukin-6 in mouse thioglycolate-elicited peritoneal exudate cell line using 77% radiolabeled Dexamethasone. It counts as functional.
For experiment [6], the system named is A549. In words: Effective concentration for inhibition of interleukin-6 in human A549 lung carcinoma cell line using 59% radiolabeled Dexamethasone. It is filed as functional, cell-based.
For experiment [7], the species on record is Mus musculus. Put plainly: Effective concentration required for inhibition of interleukin-6 in mouse thioglycolate-elicited peritoneal exudate cell line using 70% radiolabeled Dexamethasone. It counts as functional.

On to `C=C[C@@H]1CO[C@]2(CCC3=Cc4c(cnn4-c4ccc(F)cc4)C[C@@]32C)O1`, for which the EC50 (usually the midpoint of the concentration-response curve) with A549 [1] came to 0.009 µM; in the experiment listed under Mus musculus [2], 0.168 µM. The IC50 (in general, the point on the concentration scale where inhibition reaches its midpoint) at Glucocorticoid receptor turned out to be 0.0058 µM.
For `C=C[C@H]1CO[C@]2(CCC3=Cc4c(cnn4-c4ccc(F)cc4)C[C@@]32C)O1`, 0.0056 µM corresponded to half-maximal inhibition against Glucocorticoid receptor (IC50). Moreover, the EC50 in the experiment filed under Mus musculus [3] came to 0.183 µM; in the experiment on A549 [4] it was 0.025 µM.
Compound `C[C@@H]1CC(C)(C)O[C@@]2(CCC3=Cc4c(cnn4-c4ccc(F)cc4)C[C@@]32C)O1` had an IC50 against Glucocorticoid receptor of 0.0021 µM. For the same compound, the figures for the EC50 in the experiment filed under Mus musculus [5] and in the experiment with A549 [6] were 0.018 µM and 0.025 µM, respectively.
Take `C[C@]12Cc3cnn(-c4ccc(F)cc4)c3C=C1CC[C@]21OC[C@@H](c2ccccc2)O1`: at Glucocorticoid receptor, 0.0085 µM corresponded to half-maximal inhibition (IC50). The compound further showed a concentration giving a half-maximal response (EC50) in the experiment filed under Mus musculus [7] of 0.091 µM.
